In patent US9060971B2, “Combination pharmaceutical agents as inhibitors of HCV replication” (Enanta Pharmaceuticals, Inc., priority 2010, dated 2015):

Legend:
[1] = system: "Huh-luc/neo-ET" HCV replicon; assay: In vitro synergy assay, two drug combinations, luciferase, Bliss additivity; assay type: cell-based; details: 72 h
Excerpt: The coding sequence of the published HCV replicon was synthesized and subsequently assembled in a modified plasmid pBR322 (Promega, Madison, Wis.) using standard molecular biology techniques. One replicon cell line (“SGR 11-7”) stably expresses HCV replicon RNA which consists of (i) the HCV 5′UTR fused to the first 12 amino acids of the capsid protein, (ii) the neomycin phosphotransferase gene (neo), (iii) the IRES from encephalomyocarditis virus (EMCV), and (iv) HCV NS2 to NS5B genes and the HCV 3′UTR. Another replicon cell line (“Huh-luc/neo-ET”) described by Vrolijk et. al. (Vrolijk et. al. (2003) Journal of Virological Methods 110:201-209, expressly incorporated by reference in its entirety) stably expresses HCV replicon RNA which consists of (i) the HCV 5′UTR fused to the first 12 amino acids of the capsid protein, (ii) the firefly luciferase reporter gene, (iii) the ubiquitin gene, (iv) the neomycin phosphotransferase gene (neo), (v) the IRES from encephalomyocarditis virus (EMCV), and (vi) HCV NS3 to NS5B genes that harbor cell culture adaptive mutations (E1202G, T12801, K1846T) and the HCV 3′UTR.
Since clinical drug resistance often develops in viral infections following single agent therapies, there is a need to assess the additive, antagonistic, or synergistic properties of combination therapies. We used the HCV replicon system to assess the potential use of our NS5A inhibitors in combination therapies with Interferon alpha, cyclosporine analogs and inhibitors targeting other HCV proteins. The acute effects of combinations of drugs were studied in the “Huh-luc/neo-ET” replicon with each chemical agent titrated in an X or Y direction in a 6 point two-fold dilution curve centered around the EC50 of each drug. Briefly, replicon cells were seeded at 7,000 cells per well in 90 ul DMEM (without phenol red, Invitrogen Cat. #31053-036) per well with 10% FCS, 1% non-essential amino acids, 1% of Glutamax and 1% of 100× penicillin/streptomycin and incubated overnight at 37° C., 5% C02, 100% relative humidity. 16-20 h after seeding cells, test compounds previously solubilized and titrated in dimethyl sulfoxide (“DMSO”) from each X plate and Y plate were diluted 1:100 in DMEM (without phenol red, Invitrogen Cat. #31053-036) with 10% FCS, 1% non-essential amino acids, 1% of Glutamax and 1% of 100× penicillin/streptomycin and added directly to the 96-well plate containing cells and growth medium at a 1:10 dilution for a final dilution of compound and DMSO of 1:1000 ([…] final concentration). Drug treated cells were incubated at 37° C., 5% C02, 100% relative humidity for 72 hours before performing a luciferase assay using 100 ul per well BriteLite Plus (Perkin Elmer) according to the manufacturer's instructions. Data analysis utilizes the method published by Prichard and Shipman (Antiviral Research, 1990. 14:181-205). Using this method, the combination data were analyzed for antagonistic, additive, or synergistic combination effects across the entire combination surface created by the diluted compounds in combination.
We used the HCV replicon system to assess the potential use of our NS5A inhibitor in combination therapies with Interferon alpha, cyclosporine analogs or inhibitors targeting other HCV proteins. Several HCV antivirals, including protease inhibitors (ITMN-191, SCH503034, VX-950), a nucleoside analog (such as those described in WO01/90121(A2), U.S. Pat. No. 6,348,587B1, WO01/60315 or WO01/32153), a nonnucleoside NS5B polymerase inhibitor (GSK625433), a cyclosporine analog, as well as Interferon alpha, are tested in combination with Compounds 90, 93 or 95 herein, inhibitors of HCV NS5A. Antivirals were tested at five concentrations each, diluted in DMSO by 2-fold dilutions. The antivirals were tested as monotherapies and in combination with Compounds 90, 93 or 95 (described herein) at various concentration ratios. […]

[2] = system: HCV 1b genotype replicon; assay: HCV replicon drug screening assay (quantitative RT-PCR or luciferase), genotype 1b; assay type: cell-based; details: Hepatitis C virus; HCV 1b genotype replicon; quantitative RT-PCR or luciferase assay; read-out: Genotype-1b replicon EC50 Range
Outline: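 Huh-derived subgenomic genotype 1b replicon lines (SGR 11-7, neo; Huh-luc/neo-ET, firefly luciferase with adaptive mutations) grown at 37 °C. EC50 from HCV RNA by TaqMan one-step qRT-PCR normalised to GAPDH RNA. Cytotoxicity measured in parallel by MTS.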

[3] = in combination with Boceprevir (SCH503034)
[4] = in combination with Cyclosporine analog
[5] = in combination with Interferon-alpha
[6] = in combination with Telaprevir (VX-950)

| SMILES | Bliss Volume (%) at 95% Confidence Intervals, Antagonism [1, 3] [%] | Bliss Volume (%) at 95% Confidence Intervals, Synergy [1, 3] [%] | Result (combination effect) [1, 3] | Synergy Score [1, 3] [%] | Bliss Volume (%) at 95% Confidence Intervals, Antagonism ([1]; in combination with GSK625433) [%] | Bliss Volume (%) at 95% Confidence Intervals, Synergy ([1]; in combination with GSK625433) [%] | Result (combination effect) ([1]; in combination with GSK625433) | Synergy Score ([1]; in combination with GSK625433) [%] | Bliss Volume (%) at 95% Confidence Intervals, Antagonism ([1]; in combination with ITMN-191) [%] | Bliss Volume (%) at 95% Confidence Intervals, Synergy ([1]; in combination with ITMN-191) [%] | Result (combination effect) ([1]; in combination with ITMN-191) | Synergy Score ([1]; in combination with ITMN-191) [%] | Bliss Volume (%) at 95% Confidence Intervals, Antagonism [1, 5] [%] | Bliss Volume (%) at 95% Confidence Intervals, Synergy [1, 5] [%] | Result (combination effect) [1, 5] | Synergy Score [1, 5] [%] | Bliss Volume (%) at 95% Confidence Intervals, Antagonism ([1]; in combination with R7128) [%] | Bliss Volume (%) at 95% Confidence Intervals, Synergy ([1]; in combination with R7128) [%] | Result (combination effect) ([1]; in combination with R7128) | Synergy Score ([1]; in combination with R7128) [%] | further results |
| --- | --- | --- | --- | --- | --- | --- | --- | --- | --- | --- | --- | --- | --- | --- | --- | --- | --- | --- | --- | --- | --- |
| COC(=O)N[C@H](C(=O)N1CCC[C@H]1c1ncc(-c2ccc(C#Cc3ccc4nc([C@@H]5CCCN5C(=O)[C@@H](NC(=O)OC)C(C)C)[nH]c4c3)cc2)[nH]1)C(C)C [Compound 90] | 0 | 48 | Synergistic | 48 | −1 | 12 | Additive | 11 | −9 | 2 | Additive | −7 | −14 | 6 | Additive | −8 | 0 | 34 | Synergistic | 34 | Bliss Volume (%) at 95% Confidence Intervals, Antagonism [1, 4]: 0%; Bliss Volume (%) at 95% Confidence Intervals, Synergy [1, 4]: 0%; Result (combination effect) [1, 4]: Additive; Synergy Score [1, 4]: 0%; Bliss Volume (%) at 95% Confidence Intervals, Antagonism [1, 6]: −1%; Bliss Volume (%) at 95% Confidence Intervals, Synergy [1, 6]: 0%; Result (combination effect) [1, 6]: Additive; Synergy Score [1, 6]: −1%; EC50 [2]: < 1 nM |
| COC(=O)N[C@H](C(=O)N1CCC[C@H]1c1nc(-c2ccc(C#Cc3ccc4[nH]c([C@@H]5CC6(CC6)CN5C(=O)[C@@H](NC(=O)OC)C(C)C)nc4c3)cc2)c[nH]1)C(C)C [Compound 93] | 0 | 63 | Synergistic | 63 | 0 | 113 | Synergistic | 113 | 0 | 14 | Additive | 14 | 0 | 38 | Synergistic | 38 | 0 | 14 | Additive | 14 | Bliss Volume (%) at 95% Confidence Intervals, Antagonism [1, 6]: 0%; Bliss Volume (%) at 95% Confidence Intervals, Synergy [1, 6]: 7%; Result (combination effect) [1, 6]: Additive; Synergy Score [1, 6]: 7%; EC50 [2]: < 1 nM |
| COC(=O)N[C@H](C(=O)N1CC2(CC2)C[C@H]1c1nc(-c2ccc(C#Cc3ccc4[nH]c([C@@H]5CC6(CC6)CN5C(=O)[C@@H](NC(=O)OC)C(C)C)nc4c3)cc2)c[nH]1)C(C)C [Compound 95] | 0 | 44 | Synergistic | 44 | 0 | 0 | Additive | 0 | 0 | 5 | Additive | 5 | −2 | 0 | Additive | −2 | 0 | 28 | Synergistic | 28 | Bliss Volume (%) at 95% Confidence Intervals, Antagonism [1, 6]: 0%; Bliss Volume (%) at 95% Confidence Intervals, Synergy [1, 6]: 5%; Result (combination effect) [1, 6]: Additive; Synergy Score [1, 6]: 5%; EC50 [2]: < 1 nM |
